# Measured values taken from patent US9452997B2, “Piperidine and piperazine derivatives as autotaxin inhibitors” (Merck Patent GmbH, priority 2009, dated 2016).
# Biological target: T1, Recombinant autotaxin (Homo sapiens, UniProt Q13822)
# T1 construct: made in house; host or cells: Hi5 insect cells (baculovirus)
# Assay: Autotaxin assay (Amplex Red, LPC substrate)
# Format: biochemical
# Conditions: % of control at 1E−05 (compound concentration); uninhibited control = 100%
# Procedure, shortened: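 Recombinant autotaxin (Hi5 baculovirus, 16 ng) pre-incubated with compound 30 min at 22° C, then reacted with 75 μM egg LPC for 90 min at 37° C. Choline released is coupled to H2O2 and Amplex Red fluorescence (ex 485/em 612 nm). IC50 from ten 1:3 dilutions from 30 μM, duplicates, normalised to 500 μM C14 LPA.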
row,% CTRL (1E−05) [%],Compound
1,77,"N#Cc1ccc(CCC(=O)N2CCC(N3CCN(C(=O)c4ccc5[nH]nnc5c4)CC3)CC2)cc1 [Compound 94, 4-(3-{4-[4-(1H-Benzotriazole-5-carbonyl)-piperazin-1-yl]-piperidin-1-yl}-3-oxo-propyl)-benzonitrile]"

# Same assay, conditions: recombinant autotaxin, LPC substrate, Amplex Red detection; values given as upper bounds
row,IC50 [µM],Compound
1,< 10,"Cc1oc(-c2ccccc2)cc1COC(=O)N1CCN(C2CCN(C(=O)c3ccc4[nH]nnc4c3)CC2)CC1 [Compound 173, 4-[1-(1H-Benzotriazole-5-carbonyl)-piperidin-4-yl]-piperazine-1-carboxylic acid 2-methyl-5-phenyl-furan-3-ylmethyl ester]"
2,< 1,"O=C(OCc1cc(Cl)cc(Cl)c1)N1CCN(C2CCN(C(=O)c3ccc4[nH]nnc4c3)CC2)CC1 [Compound 19, 4-[1-(1H-Benzotriazole-5-carbonyl)-piperidin-4-yl]-piperazine-1-carboxylic acid 3,5-dichloro-benzyl ester]"
3,< 1,"O=C(OCc1ccc(SC(F)(F)F)cc1)N1CCN(C2CCN(C(=O)c3ccc4[nH]nnc4c3)CC2)CC1 [Compound 37, 4-[1-(1H-Benzotriazole-5-carbonyl)-piperidin-4-yl]-piperazine-1-carboxylic acid 4-trifluoromethylsulfanyl-benzyl ester]"
4,< 10,"O=C(OCc1ccc(Cl)c(OC(F)(F)F)c1)N1CCN(C2CCN(C(=O)c3ccc4[nH]nnc4c3)CC2)CC1 [Compound 145, 4-[1-(1H-Benzotriazole-5-carbonyl)-piperidin-4-yl]-piperazine-1-carboxylic acid 4-chloro-3-trifluoromethoxy-benzyl ester]"
5,< 1,"O=C(OCc1ccc(Cl)cc1Cl)N1CCN(C2CCN(C(=O)c3ccc4[nH]nnc4c3)CC2)CC1 [Compound 46, 4-[1-(1H-Benzotriazole-5-carbonyl)-piperidin-4-yl]-piperazine-1-carboxylic acid 2,4-dichloro-benzyl ester]"
6,< 10,"CC(OC(=O)N1CCN(C2CCN(C(=O)c3ccc4[nH]nnc4c3)CC2)CC1)c1ccc(C(F)(F)F)cc1 (stereo not drawn) [Compound 132, 4-[1-(1H-Benzotriazole-5-carbonyl)-piperidin-4-yl]-piperazine-1-carboxylic acid 1-(4-trifluoromethyl-phenyl)-ethyl ester]"
7,< 1,"O=C(OCc1cc(F)cc(Cl)c1)N1CCN(C2CCN(C(=O)c3ccc4[nH]nnc4c3)CC2)CC1 [Compound 152, 4-[1-(1H-Benzotriazole-5-carbonyl)-piperidin-4-yl]-piperazine-1-carboxylic acid 3-chloro-5-fluoro-benzyl ester]"
8,< 10,"O=C(Nc1ccc(-c2csnn2)cc1)C1CC(=O)N(C2CCN(C(=O)OCc3cc(Cl)cc(Cl)c3)CC2)C1 (stereo not drawn) [Compound 57, 4-[2-Oxo-4-(4-[1,2,3]thiadiazol-4-yl-phenylcarbamoyl)-pyrrolidin-1-yl]-piperidine-1-carboxylic acid 3,5-dichloro-benzyl ester]"
9,< 10,"O=C(OCc1ccc(C(F)(F)F)cc1)N1CCN(C2CCN(C(=O)c3ccc4[nH]c(=O)sc4c3)CC2)CC1 [Compound 126, 4-[1-(2-Oxo-2,3-dihydro-benzothiazole-6-carbonyl)-piperidin-4-yl]-piperazine-1-carboxylic acid 4-trifluoromethyl-benzyl ester]"
10,< 10,"O=C(NCCc1c[nH]cn1)C1CC(=O)N(C2CCN(C(=O)OCc3cc(Cl)cc(Cl)c3)CC2)C1 (stereo not drawn) [Compound 53, 4-{4-[2-(1H-Imidazol-4-yl)-ethylcarbamoyl]-2-oxo-pyrrolidin-1-yl}-piperidine-1-carboxylic acid 3,5-dichloro-benzyl ester]"
11,< 10,"O=C(OCc1ccc(C(F)(F)F)cc1)N1CCC(NC2CCN(C(=O)c3ccc4[nH]nnc4c3)C2)CC1 (stereo not drawn) [Compound 70, 4-[1-(1H-Benzotriazole-5-carbonyl)-pyrrolidin-3-ylamino]-piperidine-1-carboxylic acid 4-trifluoromethyl-benzyl ester]"
12,< 1,"O=C(OCc1c(F)c(F)c(C(F)(F)F)c(F)c1F)N1CCC(N2CCN(C(=O)c3ccc4[nH]nnc4c3)CC2)CC1 [Compound 144, 4-[4-(1H-Benzotriazole-5-carbonyl)-piperazin-1-yl]-piperidine-1-carboxylic acid 2,3,5,6-tetrafluoro-4-trifluoromethyl-benzyl ester]"
13,< 10,"Cc1ccc(COC(=O)N2CCN(C3CCN(C(=O)c4ccc5[nH]nnc5c4)CC3)CC2)cc1C(F)(F)F [Compound 119, 4-[1-(1H-Benzotriazole-5-carbonyl)-piperidin-4-yl]-piperazine-1-carboxylic acid 4-methyl-3-trifluoromethyl-benzyl ester]"
14,< 10,"O=C(CCc1ccc(Cl)cc1F)N1CCC(NC2CCN(C(=O)c3ccc4[nH]nnc4c3)CC2)C1 (stereo not drawn) [Compound 66, 1-{3-[1-(1H-Benzotriazole-5-carbonyl)-piperidin-4-ylamino]-pyrrolidin-1-yl}-3-(4-chloro-2-fluoro-phenyl)-propan-1-one]"
15,< 10,"O=C(Nc1ccc(-n2cncn2)cc1)C1CC(=O)N(C2CCN(C(=O)OCc3cc(Cl)cc(Cl)c3)CC2)C1 (stereo not drawn) [Compound 54, 4-[2-Oxo-4-(4-[1,2,4]triazol-1-yl-phenylcarbamoyl)-pyrrolidin-1-yl]-piperidine-1-carboxylic acid 3,5-dichloro-benzyl ester]"
16,< 30,"O=C(Nc1ccc(N2CCN(C(=O)OCc3ccc(C(F)(F)F)cc3)CC2)nc1)c1ccc2[nH]nnc2c1 [Compound 110, 4-{5-[(1H-Benzotriazole-5-carbonyl)-amino]-pyridin-2-yl}-piperazine-1-carboxylic acid 4-trifluoromethyl-benzyl ester]"
17,< 10,"O=C(c1ccc2[nH]nnc2c1)N1CCC(N2CCN(C(=O)c3cc4cc(Br)ccc4o3)CC2)CC1 [Compound 159, (1H-Benzotriazol-5-yl)-{4-[4-(5-bromo-benzofuran-2-carbonyl)-piperazin-1-yl]-piperidin-1-yl}-methanone]"
18,< 1,"O=C(OCc1cc(C(F)(F)F)cc(C(F)(F)F)c1)N1CCC(N2CCN(C(=O)c3ccc4[nH]nnc4c3)CC2)CC1 [Compound 162, 4-[4-(1H-Benzotriazole-5-carbonyl)-piperazin-1-yl]-piperidine-1-carboxylic acid 3,5-bis-trifluoromethyl-benzyl ester]"
19,< 10,"O=C(CN1CCC(N2CCN(C(=O)c3ccc4[nH]nnc4c3)CC2)CC1)Nc1cc(C(F)(F)F)cc(C(F)(F)F)c1 [Compound 180, 2-{4-[4-(1H-Benzotriazole-5-carbonyl)-piperazin-1-yl]-piperidin-1-yl}-N-(3,5-bis-trifluoromethyl-phenyl)-acetamide]"
20,< 1,"O=C(/C=C/c1ccc(Br)cc1F)N1CCC(N2CCN(C(=O)c3ccc4[nH]nnc4c3)CC2)CC1 [Compound 83, (E)-1-{4-[4-(1H-Benzotriazole-5-carbonyl)-piperazin-1-yl]-piperidin-1-yl}-3-(4-bromo-2-fluoro-phenyl)-propenone]"
21,< 1,"O=C(OCc1cc(Cl)cc(Cl)c1)N1CCC(N2CCN(C(=O)c3ccc4[nH]nnc4c3)CC2)CC1 [Compound 20, 4-[4-(1H-Benzotriazole-5-carbonyl)-piperazin-1-yl]-piperidine-1-carboxylic acid 3,5-dichloro-benzyl ester]"
22,< 1,"O=C(OCc1ccc(F)c(Cl)c1)N1CCC(N2CCN(C(=O)c3ccc4[nH]nnc4c3)CC2)CC1 [Compound 78, 4-[4-(1H-Benzotriazole-5-carbonyl)-piperazin-1-yl]-piperidine-1-carboxylic acid 3-chloro-4-fluoro-benzyl ester]"
23,< 1,"O=C(CCc1ccc(C(F)(F)F)cc1)N1CCC(N2CCN(C(=O)c3ccc4[nH]c(=O)oc4c3)CC2)CC1 [Compound 49, 6-(4-{1-[3-(4-Trifluoromethyl-phenyl)-propionyl]-piperidin-4-yl}-piperazine-1-carbonyl)-3H-benzooxazol-2-one]"
24,< 1,"O=C(OCc1ccc(Cl)cc1F)N1CCN(C2CCN(C(=O)c3ccc4[nH]c(=O)oc4c3)CC2)CC1 [Compound 65, 4-[1-(2-Oxo-2,3-dihydro-benzooxazole-6-carbonyl)-piperidin-4-yl]-piperazine-1-carboxylic acid 4-chloro-2-fluoro-benzyl ester]"
25,< 10,"O=C(NC1CCC(N2CCN(C(=O)OCc3ccc(SC(F)(F)F)cc3)CC2)CC1)c1ccc2[nH]nnc2c1 (stereo not drawn) [Compound 188, 4-{4-[(1H-Benzotriazole-5-carbonyl)-amino]-cyclohexyl}-piperazine-1-carboxylic acid 4-trifluoromethylsulfanyl-benzyl ester]"
26,< 1,"O=C(OCc1cc(Cl)cc(C(F)(F)F)c1)N1CCN(C2CCN(C(=O)c3ccc4[nH]nnc4c3)CC2)CC1 [Compound 95, 4-[1-(1H-Benzotriazole-5-carbonyl)-piperidin-4-yl]-piperazine-1-carboxylic acid 3-chloro-5-trifluoromethyl-benzyl ester]"

row,Compound,IC50 [µM]
1,"O=C(Cc1ccc(C(F)(F)F)cc1F)N1CCN(C2CCN(C(=O)c3ccc4[nH]nnc4c3)CC2)CC1 [Compound 103, 1-{4-[1-(1H-Benzotriazole-5-carbonyl)-piperidin-4-yl]-piperazin-1-yl}-2-(2-fluoro-4-trifluoromethyl-phenyl)-ethanone]",< 30
2,"O=C(Cc1ccc2[nH]nnc2c1)N1CCC(N2CCN(C(=O)Cc3ccc(C(F)(F)F)cc3)CC2)CC1 [Compound 138, 2-(1H-Benzotriazol-5-yl)-1-(4-{4-[2-(4-trifluoromethyl-phenyl)-acetyl]-piperazin-1-yl}-piperidin-1-yl)-ethanone]",< 10
3,"O=C(Cc1cc(C(F)(F)F)cc(C(F)(F)F)c1)N1CCN(C2CCN(C(=O)c3ccc4[nH]c(=O)oc4c3)CC2)CC1 [Compound 142, 6-(4-{4-[2-(3,5-Bis-trifluoromethyl-phenyl)-acetyl]-piperazin-1-yl}-piperidine-1-carbonyl)-3H-benzooxazol-2-one]",< 10
